# Results: patent US20250311722A1, “IMPROVED BIOCIDE” (Purgos ApS, priority 2022, published 2025)
# Where “and” joins values, the source holds several entries; their conditions need not be identical. Equal entries are not always repeated.
# Tests used:
# Assay type in all cases: cell-based
# Coniophora puteana = test: Wood impregnation with 10 and 20% NBDA, 6 weeks of exposure; conditions: for Corrected mass loss, Mean / Mass loss, Mean / Corrected mass loss / Mass loss: 6 weeks of exposure; for Corrected mass loss, Mean / Mass loss, Mean: mean of blocks; for Corrected mass loss / Mass loss: single blocks
# Description: Below table presents results from impregnation with 10 and 20% NBDA to water phase. It is expected that concentrations of up to at least 35% NBDA and/or APDEA and/or 2,2′-(octylimino)bisethanol are showing promising results.
# [1] = tested on: Pseudomonas aeruginosa, ATCC 15442; test: EN 1276 quantitative suspension test, bactericidal activity
# Procedure: (§1) The test was carried out according to EN 1276, 2019: Chemical disinfectants and antiseptics-Quantitative suspension test for the evaluation of bactericidal activity of chemical disinfectants and antiseptics used in food, industrial, domestic, and institutional areas-Test method and requirements. […] The growth media TSB (Tryptic Soy Broth) was separately inoculated with a culture loop of the microorganisms. The cultures were incubated at 37° C. for 24 hours. Bovine Serum Albumin with a final concentration of 3 g/L Polysorbate 80 with a concentration of 30 g/L The used method was Dilution-neutralization method. 1 mL of interfering substance was pipetted into a tube and 1 mL of the test suspension was added and mixed. […] The solution was incubated at 20° C. for 5 min. and 60 min. respectively. […] After 5 min. of neutralization time 100 μL of the mixture was added to a petri-dish containing TSA media. Another 100 μL was added to a tube containing 900 μL 0.9% NaCl and a serial dilution to 10^-5 was made. The mixtures added to the agar plates were evenly distributed with a Drigalski-spatula. The agar plates were incubated at 37° C. for 24 hours. After incubation, the number of surviving bacteria (CFU) was counted. The test was performed in 3 replicates.
# [2] = tested on: Escherichia coli, ATCC 10536; test: as above
# Procedure: as §1
structure (smiles),measurement,setting,value
"CCCCN(CCO)CCO [NBDA, N-butyldiethanolamine]",wood protection at high concentrations,Coniophora puteana; impregnation with 10 and 20% NBDA to water phase,strong results
same,"Corrected mass loss, Mean",Coniophora puteana; solution conc. 10.00 % w/w,0.3%
same,"Mass loss, Mean",Coniophora puteana; solution conc. 10.00 % w/w,−0.4%
same,Corrected mass loss,Coniophora puteana; solution conc. 10.00 % w/w,−0.4% and 0.3% and 0.9% and 0.0% and 1.1% and −0.2% and −0.8%
same,Mass loss,Coniophora puteana; solution conc. 10.00 % w/w,−0.9% and −0.2% and 0.4% and −0.5% and 0.6% and −0.7% and −1.3%
same,"Corrected mass loss, Mean",Coniophora puteana; solution conc. 20.00 % w/w,0.0%
same,"Mass loss, Mean",Coniophora puteana; solution conc. 20.00 % w/w,−1.5%
same,Corrected mass loss,Coniophora puteana; solution conc. 20.00 % w/w,0.3% and −0.1% and −0.5% and −0.8% and −0.7% and −0.6%
same,Mass loss,Coniophora puteana; solution conc. 20.00 % w/w,−0.7% and −1.1% and −1.6% and −1.8% and −1.7%
same,CFU/plate,"[1]; 1.5%, contact time 5 min",>165 CFU/plate
same,log10 reduction,"[1]; 1.5%, contact time 5 min",<5 log10
same,CFU/plate,"[1]; 1.5%, contact time 60 min",>165 CFU/plate
same,log10 reduction,"[1]; 1.5%, contact time 60 min",<5 log10
same,CFU/plate,"[1]; 3.0%, contact time 5 min",>165 CFU/plate
same,log10 reduction,"[1]; 3.0%, contact time 5 min",<5 log10
same,CFU/plate,"[1]; 3.0%, contact time 60 min",>165 CFU/plate
same,log10 reduction,"[1]; 3.0%, contact time 60 min",<5 log10
same,CFU/plate,"[1]; 6.0%, contact time 5 min",>165 CFU/plate
same,log10 reduction,"[1]; 6.0%, contact time 5 min",<5 log10
same,CFU/plate,"[1]; 6.0%, contact time 60 min",25 CFU/plate and 22 CFU/plate and 35 CFU/plate
same,CFU/plate,"[2]; 1.5%, contact time 5 min",>165 CFU/plate
same,log10 reduction,"[2]; 1.5%, contact time 5 min",<5 log10
same,CFU/plate,"[2]; 1.5%, contact time 60 min",>165 CFU/plate
same,log10 reduction,"[2]; 1.5%, contact time 60 min",<5 log10
same,CFU/plate,"[2]; 3.0%, contact time 5 min",>165 CFU/plate
same,log10 reduction,"[2]; 3.0%, contact time 5 min",<5 log10
same,CFU/plate,"[2]; 3.0%, contact time 60 min",>165 CFU/plate
same,log10 reduction,"[2]; 3.0%, contact time 60 min",<5 log10
same,CFU/plate,"[2]; 6.0%, contact time 5 min",>165 CFU/plate
same,log10 reduction,"[2]; 6.0%, contact time 5 min",<5 log10
same,CFU/plate,"[2]; 6.0%, contact time 60 min",25 CFU/plate and 29 CFU/plate and 30 CFU/plate
